Laboratory results reported in patent US5795899A, “Soluble salts of 4-amino-2-(4,4-dimethylimidazolidin-2-on-1-yl) pyrimidine-5-carboxylic acid N-methyl-N-(3-trifluoromethylphenyl)-amide, a process for the preparation thereof, the use thereof as pharmaceuticals and starting materials” (Hoechst Aktiengesellschaft, priority 1992, dated 1998).

Key:
[1] = test system: LDL receptor mRNA; experiment: LDL receptor mRNA expression in vivo in rat livers (Northern blot); details: 6 hours after single oral dose of 30 mg/kg, FIG. 1
Method: Liver tissue was removed at the stated time after a single oral dose of 30 mg/kg of the hydrochloride of compound I and was shock-frozen in liquid nitrogen.
The Northern blot technique was used to determine the relative LDL receptor MRNA levels. The LDL receptor MRNA level is increased about 2.5-fold after six hours.
The mRNA was prepared by the method described by Chomczynski, P. and Sacchi, N. in Anal. Biochem. 162, 156 (1987). In the case of organs (such as, for example, liver), the deep-frozen tissue was previously homogenized in a mortar on dry ice, and the mRNA was further concentrated by means of oligo dT by standard methods (compare Sambrook, J., Fritsch, E. F. and Maniatis, T., Molecular Cloning, second edition, Cold Spring Harbor (1989); this collection of methods also includes descriptions of all the other relevant standard processes of molecular biology used here). […] The filters were subsequently exposed on Cronex 4 films (Dupont) in the presence of an intensifying screen at -70° C. overnight or for up to 14 days, and the hybridization signals were quantified from the intensity of blackening of the film using a commercially available laser densitometer. Subsequently, the quotient was determined from the intensity of the LDL receptor band and of the actin band as internal standard to correct for variations in yield. […]

[2] = test system: LDL receptor mRNA in human hepatocytoma cell line HepG2; experiment: LDL receptor mRNA expression on HepG2 cells (Northern blot); type: cell-based; details: FIG. 2
Method: The HepG2 cells were previously incubated in MEM standard medium which contained 10% fetal calf serum with and without hydrochloride of the compound I (10^-6 M) for 16 hours.
Lipoprotein-deficient serum (LPDS) was in this case prepared by ultracentrifugation by a standard process (Goldstein, J. L., Basu, S. K and Brown, M. S., Methods Enzymol. 98, 241 (1983)). The MRNA in the […] was prepared in analogy to the method described above.
The mRNA was prepared by the method described by Chomczynski, P. and Sacchi, N. in Anal. Biochem. 162, 156 (1987). […] The filters were subsequently exposed on Cronex 4 films (Dupont) in the presence of an intensifying screen at -70° C. overnight or for up to 14 days, and the hybridization signals were quantified from the intensity of blackening of the film using a commercially available laser densitometer. Subsequently, the quotient was determined from the intensity of the LDL receptor band and of the actin band as internal standard to correct for variations in yield. […]

[3] = target: T1, HMG-CoA reductase (Rattus norvegicus, UniProt P51639); experiment: HMG-CoA reductase determination in vitro on partially purified HMG-CoA reductase from rat liver; type: biochemical; details: 10^-5 M; variation 10%
T1 construct: partially purified HMG-COA reductase from rat liver; from tissue; host or cells: rat liver (partially purified enzyme)
T1 sequence (P51639 1-887): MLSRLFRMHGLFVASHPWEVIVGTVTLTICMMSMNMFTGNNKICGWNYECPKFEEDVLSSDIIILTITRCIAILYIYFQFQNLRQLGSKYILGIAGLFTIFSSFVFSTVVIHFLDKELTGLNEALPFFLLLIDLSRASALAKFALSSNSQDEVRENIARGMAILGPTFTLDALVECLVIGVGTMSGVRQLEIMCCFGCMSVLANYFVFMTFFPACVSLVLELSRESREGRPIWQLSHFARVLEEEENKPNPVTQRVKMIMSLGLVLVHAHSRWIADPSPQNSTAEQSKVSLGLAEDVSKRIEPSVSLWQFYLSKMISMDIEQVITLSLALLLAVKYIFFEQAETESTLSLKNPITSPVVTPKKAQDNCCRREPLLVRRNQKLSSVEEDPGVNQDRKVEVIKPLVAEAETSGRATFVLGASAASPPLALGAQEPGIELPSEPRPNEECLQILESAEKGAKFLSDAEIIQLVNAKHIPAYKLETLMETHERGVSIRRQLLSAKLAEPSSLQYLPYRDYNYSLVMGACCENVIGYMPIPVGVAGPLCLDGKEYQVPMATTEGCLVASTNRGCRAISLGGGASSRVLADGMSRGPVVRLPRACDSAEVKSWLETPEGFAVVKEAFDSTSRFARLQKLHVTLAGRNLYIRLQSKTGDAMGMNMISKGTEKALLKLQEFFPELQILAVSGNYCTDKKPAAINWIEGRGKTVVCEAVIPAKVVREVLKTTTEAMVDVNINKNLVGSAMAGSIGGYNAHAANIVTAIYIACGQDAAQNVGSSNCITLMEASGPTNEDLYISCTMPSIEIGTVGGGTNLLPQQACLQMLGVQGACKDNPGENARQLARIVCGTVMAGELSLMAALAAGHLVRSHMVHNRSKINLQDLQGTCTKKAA

[4] = test system: mouse leukemia cells, L 1210; experiment: MTT assay, inhibition of cell proliferation, L1210; type: cell-based; details: 72 hours incubation
Method: (§1) The reduced inhibitory effect on cell proliferation was tested on exponentially growing animal (mouse leukemia cells, L 1210) and human (bronchial carcinoma cells, A 549; colon carcinoma cells, HT 29) tumor cells. This entailed the tumor cells being incubated in RPMI standard medium with various concentrations of the test substances for 72 hours. Cell incubations only in fresh medium served as control. Incubations were set up in quadruplet. […] After incubation for a further 7 to 24 hours, the cell supernatant was carefully removed and the formazan dye in the cells was solubilized by adding DMSO and measured quantitatively by photometry at 492 nm. The ratio of the extinction of the substance incubations to the control incubation was quantified. The coefficient of variation in each incubation series was less than 15%. The following Table 6 indicates the IC50 values (IC50 [μg/ml] is the concentration of the test substance per ml which is necessary for 50% inhibition) from these investigations.

[5] = test system: colon carcinoma cells, HT 29; experiment: MTT assay, inhibition of cell proliferation, HT 29; type: cell-based; details: Homo sapiens, 72 hours incubation
Method: as §1

[6] = test system: bronchial carcinoma cells, A 549; experiment: MTT assay, inhibition of cell proliferation, A 549; type: cell-based; details: Homo sapiens, A549; 72 hours incubation
Method: as §1

[7] = test system: tumor cells (L 1210, A 549, HT 29); experiment: Cell proliferation inhibition (MTT assay), overall statement; type: cell-based, mouse and human
Method: as §1

[8] = physchem; details: water

## CN(C(=O)c1cnc(N2CC(C)(C)NC2=O)nc1N)c1cccc(C(F)(F)F)c1.Cl [Compound I as hydrochloride, 4-amino-2-(4,4-dimethyl-2-oxo-1-imidazolidinyl)pyrimidine-5-carboxylic acid N-methyl-N-(3-trifluoromethylphenyl)amide hydrochloride]
[1]
  Increase in LDL receptor mRNA level in rat liver: about 2.5 -fold
[2]; 10^-6 M, 16 hours
  Overinduction of LDL receptor mRNA in lipoprotein-deficient serum compared with whole serum: further by the same factor as was observed on stimulation in whole serum
[2]; whole serum and lipoprotein-deficient serum
  Dependence of LDL receptor mRNA stimulation on cholesterol supply level: does not depend on the cholesterol "supply level"
[3]
  Influence on HMG-CoA reductase enzyme activity compared with control incubations: does not influence
[4]
  IC50: 13.4 µg/mL
[5]
  IC50: > 100 µg/mL
[6]
  IC50: > 100 µg/mL
[7]
  Proliferation inhibition compared with imanixil (HOE 402) / its hydrochloride (in words): must be given at a considerably higher dose in order to have the same proliferation-inhibiting effect
other
  Solubility in water (in words): good solubility
Table 2, Temp. [°C]: hydrochloride 25.0, nitrate 23.5, p-toluenesulfonate 23.2, hydrogen (R,R)-tartrate 24.6, free base 24.8
  1 part by mass dissolves in . . . parts of H2 O: 1.33 parts of H2 O
[8]
  solubility: 430 mg/mL
